Data set [1] concerns T1, human CMG helicase (Cdc45-MCM-GINS; Mcm2-7 ATPase core).
T1 construct: 11-subunit hCMG holoenzyme co-expressed by baculovirus in insect cells (Cdc45, Mcm2-7, GINS); with Cdc45 and GINS (Sld5, Psf1, Psf2, Psf3)
Briefly: DNA fork-unwinding helicase assay, dose-dependent suppression. Format: biochemical.

The test system of data set [2] is T2, Nc1ncnc2c1ncn2[C@@H]1O[C@H](COP(=O)(O)OP(=O)(O)OP(=O)(O)O)[C@@H](O)[C@H]1O.
T2 construct: 11-subunit hCMG holoenzyme co-expressed by baculovirus in insect cells (Cdc45, Mcm2-7, GINS); with Cdc45 and GINS (Sld5, Psf1, Psf2, Psf3)
Briefly: helicase kinetics with increasing ATP (Km). In kind it is biochemical, Homo sapiens. The settings on record: Mg2+ MCM ATPase clefts formed between adjacent MCM subunit pairs.

Consider `Nc1ncnc2c1ncn2[C@@H]1O[C@H](COP(=O)(O)OP(=O)(O)OP(O)(O)=S)[C@@H](O)[C@H]1O` [ATP-γ-S], for which the “DNA fork-unwinding helicase assay, dose-dependent suppression” value in data set [1] is on record as “dose-dependent suppression of fork-unwinding activity in the presence of slow-hydrolyzable ATP-γ-S”.

For orientation: Km means the concentration of substrate that gives half-maximal velocity. For the molecule “human CMG helicase (Cdc45-MCM-GINS; Mcm2-7 ATPase core) (Homo sapiens)”, the Km in data set [2] is recorded as 690 µM.

For the origin of these results see PMC10441460, “Identification of Selective ATP-Competitive CMG Helicase Inhibitors for Cancer Intervention that Disrupt CMG-Replisome Function” (Research Square, 2023).
